Reference: patent US11021687B2, “Production of differentiated enteroendocrine cells and insulin producing cells” (Massachusetts Institute of Technology, priority 2016, dated 2021)
Where two headings read alike, the source gives them in different places.

Experiments:
[1] = system: differentiated intestinal stem cells; assay: Insulin-GFP reporter expression (FACS) in differentiated intestinal stem cells; assay type: cell-based, mouse; settings: for percentage of Insulin-GFP+ cells: further addition to 616452, day 5
Text: “Insulin Activity Assay” as used herein is an assay used to determine the extent to which insulin gene transcription, translation or insulin release has been activated in a cell population. In an exemplary Insulin Activity Assay, the initial cells are isolated from the intestine of an Insulin-GFP mouse such as […] mouse (also referred to as the MIT-GFP mouse, Jackson lab stock no.: 006864). Intestinal crypts are isolated from the proximal half of the intestine. […] The cells are then passaged for 1-2 times to create a starting cell population for the assay. To test the capacity of agents to activate insulin gene transcription, translation or insulin release, the cells are incubated with appropriate culture media (e.g. aforementioned crypt culture media), growth factors and/or other agents being tested. Appropriate culture media, including crypt culture media as well as the agents being assessed, are added into each well and incubated with the cells for a period of 2-10 days with media change every 2 days. The fraction of insulin-GFP positive cells (i.e., cells in which the insulin-GFP reporter is activated) can be quantified using a flow cytometer to measure the fraction of GFP+ cell population present in the total cell population. Also, the average insulin activity of a cell population can be measured by measuring the average mRNA expression level of insulin of the population normalized using suitable references or housekeeping genes (e.g., using mRNA expression of Hprt as a baseline).

[2] = system: differentiated cell colonies
[3] = system: gastrointestinal stem cells; assay: Insulin / Nkx6.1 mRNA expression (qPCR), 3-stage conversion to insulin producing cells; assay type: cell-based, mouse
Text: “mRNA Insulin Expression Assay” refers to an assay used to determine the relative insulin mRNA expression level of a cell population. For example, the assay can determine the insulin mRNA level expressed in a cell population treated to increase the expression of insulin in the cells, as compared to an untreated population of cells. In an exemplary mRNA Insulin Expression Assay, the cells were collected and the RNA is extracted from the cells using an RNA extraction kit (such as RNeasy Mini kit, Qiagen). The insulin expression level is then assessed by Quantitative real-time PCR using a one-step qPCR kit (such as QuantiTech Probe PCR kit, Qiagen) and Ins1 or Ins2 primers and probes (such as the commercially available TaqMan probe for mouse Ins1 and Ins2, Life Technologies). The relative insulin mRNA expression can be determined relative to a baseline or other marker, such as Hprt mRNA expression level or other baseline marker.
(§1) Organoids or differentiated cells were harvested and RNA was extracted using RNeasy Micro Kit (Qiagen) according to the manufacturer's instruction. Quantitative real-time PCR was performed with QuantiTect Probe PCR kit (Qiagen) using commercially available primers and TaqMan probes (Life Technologies).
Based on the protocol to convert gastrointestinal stem cells into insulin producing cells, a 3-stage process was developed, specifically, Day 0-1 as Stage 1, Day 1-3 as Stage 2, Day 3-5 as Stage 3. After Stage 3, the cells turn on significant level of Insulin expression as indicated by Ins-EGFP expression and qPCR for Insulin mRNA expression. Optionally, the cells can be further cultured for 1-2 weeks, as Stage 4. For each stage, a set of specific combination of small molecules (and/or growth factors) were added. The objective was to optimize the reprogramming protocol to increase insulin expression, specifically Insulin mRNA expression for each stage, by screening and testing new small molecules (or growth factors).

intestinal stem cells = assay: mRNA expression (qPCR) of ChgA and other lineage markers in differentiated intestinal stem cells; assay type: cell-based, mouse; settings: for differentiation towards EEC (ChgA expression): added to Notch and EGFR/MEK/ERK inhibition combination without R-Spondin1; for ChgA expression of the differentiated cells: versus previous differentiation conditions (FIG. 21)
Text: “mRNA ChgA Expression Assay” refers to an assay used to determine the relative ChgA mRNA expression level in a cell population. For example, the assay can determine ChgA mRNA expression level of a differentiated cell population following treatment with agents being tested, as compared to an untested population of post-natal stem cells. In an example of an mRNA ChgA Expression Assay, the cells were collected and the RNA is extracted from the cells using an RNA extraction kit (such as RNeasy Mini kit, Qiagen). The ChgA expression level is then assessed by Quantitative real-time PCR using a one-step qPCR kit (such as QuantiTech Probe PCR kit, Qiagen) and ChgA primers and probes (such as commercially available Taqman probe for mouse ChgA, Life Technologies).
as §1
Cells were then cultured with EGF, Noggin, and DAPT (END), as well as small molecules. After 2-3 days of differentiation, the cells lysed and ChgA expression was measured by qRT-PCR.
Small molecules were further validated using a 24-well plate culture and the differentiation system. […] The expression of markers of secretory lineage cells including goblet cells (Muc2), enteroendocrine cells (ChgA), and Paneth cells (Lyz1) were measured.

[4] = continuing culture of Islet-like Insulin expression cell colonies

## Nc1ncn([C@@H]2O[C@H](CO)[C@@H](O)[C@H]2O)c(=O)n1 [5-Aza, 5-Azacytidine]
[1]; dose response, day 5
  optimal concentration in inducing insulin-GFP expression: 0.5 to 1 µM
[1]
  percentage of Insulin-GFP+ cells: subsequently increased
[2]
  cell death in the culture: induced cell death

## Nc1ncn([C@H]2C[C@H](O)[C@@H](CO)O2)c(=O)n1 [5Aza, 5-aza-2′-deoxycytidine]
[3]; treatment extended from Stage 1 only to Stage 1 and Stage 2
  Insulin mRNA expression: slightly increased

## COc1cc2ncnc(Nc3ccc(NC(=O)c4ccccc4)cc3)c2cc1OC [Aurora Kinase Inhibitor II]
[3]; added in Stage 3
  Insulin mRNA expression: increase

## COC(=O)C1=C(C)NC(C)=C([N+](=O)[O-])C1c1ccccc1C(F)(F)F (centres unmarked) [BayK 8644]
[2]; [4]
  effect of removal: could be removed without much influence
[3]
  stages of addition giving highest activity: highest activity when added in Stages 1-3
[3]; added in Stage 1
  Insulin mRNA expression: increased
[3]; dose response
  concentration of highest activity / optimal concentration in promoting Insulin expression: 2 µM

## Cc1c[nH]c(-c2cnc(NCCNc3ccc(C#N)cn3)nc2-c2ccc(Cl)cc2Cl)n1 [CHIR99021, 6-[[2-[[4-(2,4-dichlorophenyl)-5-(5-methyl-1H-imidazol-2-yl)-2-pyrimidinyl]amino]ethyl]amino]-3-pyridinecarbonitrile]
[1]; added in Step 1 to increase Wnt activation, 5 days
  GFP expression: did not increase
[3]; Stage 3, combined with T3
  Insulin mRNA expression: further increased
[3]; added in Stage 3
  Insulin mRNA expression: greatly increased
Intestinal stem cells
  differentiation towards EEC (ChgA expression): did not further increase

## CC(C)Oc1ccc(-c2cnc3c(-c4ccnc5ccccc45)cnn3c2)cc1 [DMH-1]
[2]; [4]
  effect of removal: could be removed without much influence
[3]; added in Stages 2-3
  expression of Nkx6.1 and insulin: increased

## C=C[C@@]1(C)CC(=O)[C@]2(O)[C@@]3(C)[C@@H](O)CCC(C)(C)[C@@H]3[C@H](O)[C@H](OC(C)=O)[C@@]2(C)O1 [Forskolin]
[2]; 50-100 μM, added in Stage 3
  cell survival: improved cell survival
[2]; [4]
  cell survival: increased cell survival

## O=C(O)c1ccc(O)c2ncccc12 [IOX1]
[3]; used at 5-10 μM
  Insulin and Nkx6.1 expression: increased

## O=C(NC1CC1)c1cc(-c2cccs2)on1 [ISX-9, N-cyclopropyl-5-(2-thienyl)-3-isoxazolecarboxamide]
[1]; added to the combination, 5 days in culture
  number of GFP+ cells: further increase
[3]; dose response
  optimal dose in promoting Insulin and Nkx6.1 expression: 10 to 20 µM
Intestinal stem cells; relative to reference gene Hprt
  expression of functional EEC markers such as Gip, Gcg, Cck, Pyy: decreased
Intestinal stem cells
  ChgA expression of the differentiated cells: further increased

## Cc1ccc2nc(NC(=O)CSc3nc4c(c(=O)n3-c3ccccc3)SCC4)sc2c1 [IWP 2]
Intestinal stem cells
  differentiation towards EEC (ChgA expression): did not further increase

## CC(=O)N[C@@H](CS)C(=O)O [N-Acetylcysteine]
[3]; Stage 3, combined with T3
  Insulin mRNA expression: further increased
[3]; added in Stage 3
  Insulin mRNA expression: increased

## N[C@@H](Cc1cc(I)c(Oc2ccc(O)c(I)c2)c(I)c1)C(=O)O [T3, Triiodothyronine]
[3]; added in Stage 3
  Insulin mRNA expression: greatly increased

## O=C1O[C@H]([C@@H](O)CO)C(O)=C1O [Vitamin C]
[3]; added in Stage 2-3
  effect on conversion: beneficial effects
[3]; added in Stage 3
  Insulin mRNA expression: did not show such effect

## Cc1cc(-c2ccc(CC(=O)Nc3ccc(-c4cccnc4)cc3)cc2)ccn1 [Wnt-C59]
[1]
  percentage of Insulin-GFP+ cells: subsequently increased
[3]; addition delayed for 12 hours in Stage 2
  Insulin mRNA expression: increased
[3]; dose response (FIG. 52)
  optimal dose in promoting Insulin and Nkx6.1 expression: 5 µM
Intestinal stem cells; added in step 2
  Paneth cell marker Lyz1 expression: effectively decreased
Intestinal stem cells; added in step 2 of 2-step protocol
  ChgA expression: further increased
Intestinal stem cells; delayed addition for 12-24 hours in step 2
  ChgA expression: further increases
Intestinal stem cells
  ChgA expression of the differentiated cells: further increased

## EGF: epidermal growth factor
[2]; EGF removed in both steps
  dead cells in the lumen of the differentiated cell colony: more dead cells
Intestinal stem cells; 5 days
  EEC marker (ChgA, Gip, Gcg, CCK) expression on removing EGF from the media: further increased

## Exendin-4: factor identified to increase Insulin mRNA expression
[3]; added in Stage 3
  Insulin mRNA expression: increase
